From patent publication US20160279187A1, “CALPAIN INHIBITORS FOR IBD AND COLORECTAL CANCER TREATMENT” (UNIVERSITY OF HAWAII, priority 2013, published 2016)
Where a SMILES comes first, the peptide text is derived from it. The star is where a group is joined. Cbz = O=C(OCc1ccccc1)*; CH2F = FC*

Target: T1, M-Calpain activity in CT-26 WT cells (Mus musculus, UniProt O08529)
T1 construct: endogenous in cells; host or cells: CT-26.WT mouse colon cancer cells
T1 sequence (O08529 20-700 limits assumed): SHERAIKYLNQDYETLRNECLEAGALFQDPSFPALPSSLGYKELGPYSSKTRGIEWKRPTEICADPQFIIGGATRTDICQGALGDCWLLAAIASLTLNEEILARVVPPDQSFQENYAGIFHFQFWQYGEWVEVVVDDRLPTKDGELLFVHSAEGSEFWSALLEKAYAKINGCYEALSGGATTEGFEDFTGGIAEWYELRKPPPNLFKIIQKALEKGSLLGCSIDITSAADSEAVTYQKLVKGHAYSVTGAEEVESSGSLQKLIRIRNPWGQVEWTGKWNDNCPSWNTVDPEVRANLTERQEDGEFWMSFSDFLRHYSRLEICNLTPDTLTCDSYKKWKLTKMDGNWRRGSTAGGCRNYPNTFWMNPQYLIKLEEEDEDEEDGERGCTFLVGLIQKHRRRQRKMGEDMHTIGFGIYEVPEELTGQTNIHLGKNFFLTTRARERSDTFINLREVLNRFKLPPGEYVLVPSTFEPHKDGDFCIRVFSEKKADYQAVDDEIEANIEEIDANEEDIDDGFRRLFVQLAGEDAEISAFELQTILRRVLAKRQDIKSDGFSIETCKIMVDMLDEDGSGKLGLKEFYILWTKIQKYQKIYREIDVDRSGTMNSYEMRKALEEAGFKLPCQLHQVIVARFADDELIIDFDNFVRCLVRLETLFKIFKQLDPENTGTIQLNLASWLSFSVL
T1 sequence (O88456 1-268 partner): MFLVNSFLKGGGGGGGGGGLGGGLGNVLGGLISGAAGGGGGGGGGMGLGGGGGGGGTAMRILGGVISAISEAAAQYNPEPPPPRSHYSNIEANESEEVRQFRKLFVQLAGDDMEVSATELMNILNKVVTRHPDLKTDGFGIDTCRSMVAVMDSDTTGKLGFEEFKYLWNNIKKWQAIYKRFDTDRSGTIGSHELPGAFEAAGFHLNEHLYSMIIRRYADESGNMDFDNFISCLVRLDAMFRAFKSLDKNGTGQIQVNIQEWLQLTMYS
Experiment: Calpain Activity Assay Kit (BioVision), CT-26.WT
Format: cell-based
Conditions: vs DMSO, 1 hour
Procedure: Bone marrow derived macrophages (BMDM) were prepared as previously described by methods known to those skilled in the art. On day 5 of culture, 2×10^6 BMDM were seeded in 6-well plates and the following day were primed for 18 h with TNFα (20 ng/mL), followed by 1 h stimulation with E. faecalis (1 μg/mL; ATCC). Stimulation with E. faecalis was conducted in the presence of the zLLY-CH2F calpain-2 inhibitor (20 μg/mL) or DMSO as a control. Media was removed from treated BMDM, centrifuged at 300×g for 5 min and supernatent analyzed using the Cytometric Bead Array Mouse Inflammation Kit (BD Biosciences, San Jose, Calif.). Cytokine data were analyzed using Flowjo software (Ashland, Oreg.) and GraphPad Prism version 4.0 (GraphPad, La Jolla, Calif.). Cell pellets were lysed and analyzed for IκB and NFκB by Western blot as previously described (Miyazaki, T. et al. Journal of Atherosclerosis and Thrombosis 20, 228-237, 2013). […] Each day 4 wells were quantified using Celltiter MTS reagent (Promega) and the resulting signal was used to generate a proliferation curve. Calpain activity was measured using a Calpain activity assay kit (BioVision, Inc., Milpitas, Calif.) as previously described. Colons were harvested on day 4 and calpain activity measured. […]

- M-Calpain activity: reduced
SMILES: CC(C)C[C@H](NC(=O)OCc1ccccc1)C(=O)N[C@@H](CC(C)C)C(=O)N[C@@H](Cc1ccc(O)cc1)C(=O)CF [zLLY-CH2F, Z-LLY-CH2F] (Cbz-Leu-Leu-Tyr-CH2F)
